One assay addresses DNA polymerase beta (Rattus norvegicus, UniProt P06766). Kind of assay: DNA Polymerase Assay. The settings on record: pH 7.5; 37 °C. As to the method:
(§1) For the DNA polymerase reaction, the dehydroaltenusin derivative was dissolved in dimethyl sulfoxide (DMSO) at various concentrations and sonicated for 30 s. Four microlitres of each sonicated sample were mixed with 16 uL of enzyme (final 0.05 units) in reaction buffer, and kept at 0 deg C for 10 min. These inhibitor-enzyme mixtures were added to 16 uL of each enzyme standard reaction mixture containing DNA template-primer and nucleotide, and incubated at 37 deg C for 60 min. Activity without the inhibitor was considered 100%, and the remaining activity at each concentration of the inhibitor was determined relative to this value. One unit of pol activity was defined as the amount of enzyme that catalyzed the incorporation of 1 nmol of dNTP (i.e., dTTP) into synthetic DNA template-primer in 60 min at 37 deg C under the normal reaction conditions.

In another assay the target is DNA polymerase (Bos taurus, UniProt A0AAA9TD94). Kind of assay: DNA Polymerase Assay. To be noted: pH 7.5; 37 °C. As to the method:
as §1

Usually IC50 stands for the concentration that gives 50% inhibition.

For the compound `CCCCCCCCCCCCOc1cc(O)c2c(c1)C1=CC(=O)C(=O)CC1(C)OC2=O` (stereo not given) [dehydroaltenusin derivative, 16], the IC50 was found to be 11 µM on DNA polymerase beta and 0.06 µM against DNA polymerase.
Consider `CC12CC(=O)C(=O)C=C1c1cc(O)cc(O)c1C(=O)O2` (stereo not given) [desmethyldehydroaltenusin, 2], for which the IC50 against DNA polymerase beta was found to be 126 µM; at DNA polymerase it was 0.89 µM.
The matching figures for `COc1cc(O)c2c(c1)C1=CC(=O)C(=O)CC1(C)OC2=O` (stereo not given) [dehydroaltenusin]: 64 µM and 0.68 µM.
For `COc1cc(O)c2c(=O)oc3cc(O)c(O)cc3c2c1` [dehydroaltenusin derivative, 26], in that order: more than 200 µM and more than 200 µM.
The matching figures for `CC12CC(=O)C(=O)C=C1c1cccc(O)c1C(=O)O2` (stereo not given) [dehydroaltenusin derivative, 20]: 89 µM and 0.24 µM.
Consider `CC12C=CC(=O)C=C1c1cccc(O)c1C(=O)O2` (stereo not given) [dehydroaltenusin derivative, 32], for which the IC50 against DNA polymerase beta and against DNA polymerase was more than 200 µM in each case.
`COc1cc(O)c2c(c1)C1=CC(=O)C=CC1(C)OC2=O` (stereo not given) [dehydroaltenusin derivative, 31]: the IC50 against DNA polymerase beta and at DNA polymerase was more than 200 µM in each case.
Regarding `CCCCCCOc1cc(O)c2c(c1)C1=CC(=O)C(=O)CC1(C)OC2=O` (stereo not given) [dehydroaltenusin derivative, 15], the IC50 is 24 µM against DNA polymerase beta and 0.09 µM against DNA polymerase.
Take `CCCOc1cc(O)c2c(c1)C1=CC(=O)C(=O)CC1(C)OC2=O` (stereo not given) [dehydroaltenusin derivative, 14]: the IC50 on DNA polymerase beta was 35 µM; against DNA polymerase, 0.18 µM.
On to `COc1cc(O)c2c(=O)oc3cc(OCc4ccccc4)c(OCc4ccccc4)cc3c2c1` [dehydroaltenusin derivative, 25], for which the IC50 on DNA polymerase beta and against DNA polymerase was more than 200 µM each time.
